The numbers were not newly measured in patent US20110257090A1, “SOLUTIONS FOR VOLUME THERAPY” (FRESENIUS KABI DEUTSCHLAND GMBH, priority 2008, published 2011), which cites them from elsewhere.

In the data set the test system is cultured mammalian cells. Particulars: long-term studies.

On to `O=S(=O)(O)CCN(CCO)CCO` [BES, N,N-bis(2-hydroxyethyl)-2-aminoethanesulfonic acid], for which the “toxicity to cultured mammalian cells” value is listed as “non-toxic”.
